20 compounds from patent US5594157A, “Process for making taxol derivatives” (Abbott Laboratories, priority 1995, dated 1997) can be followed below.

In one test the test system is A549. Briefly: In vitro tumor cell cytotoxicity, three day MTT microtiter assay (A549). The conditions noted are these: Homo sapiens, read-out: In vitro tumor cell cytotoxicity (IC50). Format: cell-based, human. Here is the method:
(§1) A three day microtiter assay was used to measure the growth inhibition of cultured cells exposed to a range of drug concentrations. Metabolic activity was measured by the cells' ability to reduce the tetrazolium dye, MTT (3-(4,5-dimethylthiazol-2-yl-2,5-diphenyltetrazolium bromide) to a quantifiable colored end product, which absorbs at 570 nm in the visible spectrum. Surviving cells reduce the MTT dye.
(§2) Test compounds were dissolved in dimethyl sulfoxide (DMSO) and diluted, first with Earle's Balanced Salt Solution, followed by culture medium, to twice the highest concentration of compound to be tested. From this concentrated stock, two-fold serial dilutions were prepared in 96-well microtiter trays, each well containing twice the desired final concentration of compound. Each concentration was tested in triplicate and compared to triplicate drug-free controls.
(§3) The cells were grown in the same medium used for diluting the compounds and then harvested using trypsinization. This involved removing the medium by aspiration; rinsing the cell monolayer twice with Earle's Balanced Salt Solution; adding trypsin (0.05%)/EDTA (0.53 mM; for each 25 cm^2, approximately 0.2 mL), tilting to cover the monolayer, and then withdrawing trypsin leaving only a thin film of solution; incubating at room temperature until the cell monolayers detached (as determined by visual and/or microscopic observation); adding medium contaiing fetal calf serum to stop the action of the trypsin and resuspend the cells; triturating to aid dissociation of cell clumps; and determining the number of cells per milliliter by electronic cell counter (e.g. Coulter Counter) or by mixing an aliquot of cell suspension with Trypan Blue (0.4% in normal saline) and counting the viable cells using a hemacytometer.
(§4) After harvesting and determination of viable cell counts, cell density was adjusted to 25,000 cells/mL. Inoculum (0.1 mL) containing the cells was then added to each well for a final concentration of 2,500 cells per well. Addition of the inoculum diluted the test compounds to the desired final concentration.
(§5) Microtiter trays were then incubated for three days at 36° C. in a humidified atmosphere containing 5% carbon dioxide. After three days, 20 microtiters of 5 mg/mL MTT in phosphate-buffered saline solution were added to each well. Trays were returned to the incubator for two to four hours to allow the surviving cells to reduce the dye. Medium and unreduced dye were removed by aspiration. DMSO was added to each well to dissolve the water-insoluble, colored end product of the dye reduction so that it could be measured spectrophotometrically at 570 nm.
For orientation: Formazan colour is commonly taken as a measure of viable cells.

A further test concerns P-388. Briefly: In vitro tumor cell cytotoxicity, three day MTT microtiter assay (P-388). Type of test: cell-based, mouse. The following applies: P388, 72 h, read-out: In vitro tumor cell cytotoxicity (IC50). Here is the method: as §1, §2, §3, §4, §5
[1] abbreviates: 72 h, A549, 3 days, MTT, absorbance at 570 nm.
[2] abbreviates: P-388 (mouse leukemia), 3 days, MTT, absorbance at 570 nm.

Each structure is given as a SMILES string. Converted amounts (≈) assume the structure as drawn. Read-outs that look alike come from different tables or passages of the source.

By IC50 is commonly meant the concentration that gives 50% inhibition. With `CC(=O)O[C@@H]1C2=C(C)[C@@H](OC(=O)[C@H](O)[C@@H](NC(=O)c3ccccc3)c3ccccc3)C[C@@](O)([C@@H](OC(=O)c3ccccc3)[C@@H]3[C@]4(OC(C)=O)CO[C@@H]4C[C@@H]4OC(=S)O[C@@H]1[C@]43C)C2(C)C` [Example 14, 9-Dihydrotaxol-7,9-thionocarbonate], the IC50 with A549 (A549, 72 h) was found to be 0.019 µg/mL (≈ 0.0212 µM); with P-388 (Mus musculus) it was 0.035 µg/mL (≈ 0.039 µM).
In the case of `CC(=O)O[C@@H]1C2=C(C)[C@@H](OC(=O)[C@H](O)[C@@H](NC(=O)C(C)(C)C)c3ccccc3)C[C@@](O)([C@@H](OC(=O)c3ccccc3)[C@@H]3[C@]4(OC(C)=O)CO[C@@H]4C[C@H](O)[C@@]3(C)[C@H]1O)C2(C)C` [Example 28, N-Debenzoyl-N-pivaloyl-9-dihydrotaxol], the IC50 in the test on A549 (setting [1]) was found to be 0.11 µg/mL (≈ 0.132 µM); in the test with P-388 (setting [2]), 0.083 µg/mL (≈ 0.0993 µM).
Consider `CCN(CC)CCO[C@H]1C[C@H]2OC[C@@]2(OC(C)=O)[C@H]2[C@H](OC(=O)c3ccccc3)[C@]3(O)C[C@H](OC(=O)[C@H](O)[C@@H](NC(=O)c4ccccc4)c4ccccc4)C(C)=C([C@@H](OC(C)=O)[C@H](O)[C@]12C)C3(C)C` [Example 17], for which the IC50 in the test with A549 (A549, 72 h) turned out to be 0.4 µg/mL (≈ 0.419 µM); in the test with P-388 (Mus musculus), 0.31 µg/mL (≈ 0.325 µM).
Regarding `CC(=O)OCCO[C@H]1C[C@H]2OC[C@@]2(OC(C)=O)[C@H]2[C@H](OC(=O)c3ccccc3)[C@]3(O)C[C@H](OC(=O)[C@H](O)[C@@H](NC(=O)c4ccccc4)c4ccccc4)C(C)=C([C@@H](OC(C)=O)[C@H](O)[C@]12C)C3(C)C` [Example 19, 9-Dihydrotaxol 7-O-(2-Acetoxyethyl) ether], the IC50 stood at 0.12 µg/mL (≈ 0.127 µM) with A549 (setting [1]) and 0.079 µg/mL (≈ 0.0839 µM) with P-388 (setting [2]).
Taken in the same sequence, the figures for `CC(=O)N[C@@H](c1ccccc1)[C@@H](O)C(=O)O[C@H]1C[C@@]2(O)[C@@H](OC(=O)c3ccccc3)[C@@H]3[C@]4(OC(C)=O)CO[C@@H]4C[C@H](O)[C@@]3(C)[C@@H](O)[C@H](OC(C)=O)C(=C1C)C2(C)C` [Example 29, N-Debenzoyl-N-acetyl-9-dihydrotaxol] were 2.1 µg/mL (≈ 2.65 µM) and 2.02 µg/mL (≈ 2.54 µM).
Regarding `CC(=O)O[C@@H]1C2=C(C)[C@@H](OC(=O)[C@H](O)[C@@H](NC(=O)NC(C)(C)C)c3ccccc3)C[C@@](O)([C@@H](OC(=O)c3ccccc3)[C@@H]3[C@]4(OC(C)=O)CO[C@@H]4C[C@H](O)[C@@]3(C)[C@H]1O)C2(C)C` [Example 30, N-Debenzoyl-N-t-butylcarbamyl-9-dihydrotaxol], the IC50 in the test on A549 (A549, 72 h) was 0.014 µg/mL (≈ 0.0165 µM); in the test with P-388 (Mus musculus) it was 0.017 µg/mL (≈ 0.02 µM).
On to `CC(=O)O[C@@H]1C2=C(C)[C@@H](OC(=O)[C@H](O)[C@@H](NC(=O)c3ccccc3)c3ccccc3)C[C@@](O)([C@@H](OC(=O)c3ccccc3)[C@@H]3[C@]4(OC(C)=O)CO[C@@H]4C[C@H](OCCO)[C@@]3(C)[C@H]1O)C2(C)C` [Example 18, 9-Dihydrotaxol 7-O-(2-Hydroxyethyl) ether], for which the values for the IC50 with A549 (setting [1]) and in the test with P-388 (setting [2]) were 0.039 µg/mL (≈ 0.0433 µM) and 0.17 µg/mL (≈ 0.189 µM), respectively.
On to `CC(=O)O[C@@H]1C2=C(C)[C@@H](OC(=O)[C@H](O)[C@@H](NC(=O)c3ccccc3)c3ccccc3)C[C@@](O)([C@@H](OC(=O)c3ccccc3)[C@@H]3[C@]4(OC(C)=O)CO[C@@H]4C[C@H](O)[C@@]3(C)[C@H]1O)C2(C)C` [Example 8, 9-Dihydrotaxol], for which the IC50 with A549 (A549, 72 h) came out at 0.016 µg/mL (≈ 0.0187 µM); in the test with P-388 (Mus musculus), 0.049 µg/mL (≈ 0.0572 µM).
Taken in the same sequence, the figures for `CC(=O)O[C@@H]1C2=C(C)[C@@H](OC(=O)[C@H](O)[C@@H](NC(=O)c3ccccc3)c3ccccc3)C[C@@](O)([C@@H](OC(=O)c3ccccc3)[C@@H]3[C@]4(OC(C)=O)CO[C@@H]4C[C@@H]4OC(CC(O)CO)O[C@@H]1[C@]43C)C2(C)C` (stereo partly shown) [Example 13, 9-Dihydrotaxol-7,9-(3,4-dihydroxy)butylidene acetal] were 0.3 µg/mL (≈ 0.318 µM) and 0.18 µg/mL (≈ 0.191 µM).
With `CC(=O)O[C@@H]1C2=C(C)[C@@H](OC(=O)[C@H](O)[C@@H](NC(=O)OCC(C)C)c3ccccc3)C[C@@](O)([C@@H](OC(=O)c3ccccc3)[C@@H]3[C@]4(OC(C)=O)CO[C@@H]4C[C@H](O)[C@@]3(C)[C@H]1O)C2(C)C` [Example 23, N-Debenzoyl-N-isobutoxycarbonyl-9-dihydrotaxol], the IC50 in the test on A549 (A549, 72 h) is 0.0043 µg/mL (≈ 0.00505 µM); with P-388 (Mus musculus) it was 0.028 µg/mL (≈ 0.0329 µM).
Taken in the same sequence, the figures for `CC(=O)O[C@@H]1C2=C(C)[C@@H](OC(=O)[C@H](O)[C@@H](NC(=O)c3ccccc3)c3ccccc3)C[C@@](O)([C@@H](OC(=O)c3ccccc3)[C@@H]3[C@]4(OC(C)=O)CO[C@@H]4C[C@@H]4OC(C)(C)O[C@@H]1[C@]43C)C2(C)C` [Example 10, 9-Dihydrotaxol-7,9-isopropylidene ketal] were 0.025 µg/mL (≈ 0.0279 µM) and 0.042 µg/mL (≈ 0.0469 µM).
On to `CC(=O)O[C@@H]1C2=C(C)[C@@H](OC(=O)[C@H](O)[C@@H](NC(=O)CC(C)(C)C)c3ccccc3)C[C@@](O)([C@@H](OC(=O)c3ccccc3)[C@@H]3[C@]4(OC(C)=O)CO[C@@H]4C[C@H](O)[C@@]3(C)[C@H]1O)C2(C)C` [Example 22, N-Debenzoyl-N-t-butylacetyl-9-dihydrotaxol], for which the IC50 in the test with A549 (setting [1]) is 0.027 µg/mL (≈ 0.0318 µM); with P-388 (setting [2]), 0.052 µg/mL (≈ 0.0612 µM).
Regarding `CC(=O)O[C@@H]1C2=C(C)[C@@H](OC(=O)[C@H](O)[C@@H](NC(=O)OCc3ccccc3)c3ccccc3)C[C@@](O)([C@@H](OC(=O)c3ccccc3)[C@@H]3[C@]4(OC(C)=O)CO[C@@H]4C[C@H](O)[C@@]3(C)[C@H]1O)C2(C)C` [Example 26, N-Debenzoyl-N-benzyloxycarbonyl-9-dihydrotaxol], the IC50 in the test on A549 (A549, 72 h) was determined as 0.031 µg/mL (≈ 0.035 µM); in the test with P-388 (Mus musculus) it was 0.057 µg/mL (≈ 0.0643 µM).
Taken in the same sequence, the figures for `CC(=O)O[C@@H]1C2=C(C)[C@@H](OC(=O)[C@H](O)[C@@H](NC(=O)OC34CC5CC(CC(C5)C3)C4)c3ccccc3)C[C@@](O)([C@@H](OC(=O)c3ccccc3)[C@@H]3[C@]4(OC(C)=O)CO[C@@H]4C[C@H](O)[C@@]3(C)[C@H]1O)C2(C)C` [Example 24, N-Debenzoyl-N-adamantoxycarbonyl-9-dihydrotaxol] were 0.0043 µg/mL (≈ 0.00462 µM) and 0.01 µg/mL (≈ 0.0108 µM).
As for `CC(=O)O[C@@]12CO[C@@H]1C[C@H](O)[C@]1(C)[C@@H]2[C@H](OC(=O)c2ccccc2)[C@]2(O)C[C@H](OC(=O)[C@H](O)[C@@H](NC(=O)OC(C)(C)C)c3ccccc3)C(C)=C([C@@H](O)[C@@H]1O)C2(C)C` [Example 21, 10-Deacetyl-N-debenzoyl-N-t-butoxycarbonyl-9-dihydrotaxol], the IC50 came to 0.00026 µg/mL (≈ 0.000321 µM) in the test on A549 (setting [1]) and 0.0028 µg/mL (≈ 0.00346 µM) in the test with P-388 (setting [2]).
Taken in the same sequence, the figures for `CC(=O)O[C@@H]1C2=C(C)[C@@H](OC(=O)[C@H](O)[C@@H](NC(=O)OC(C)(C)C)c3ccccc3)C[C@@](O)([C@@H](OC(=O)c3ccccc3)[C@@H]3[C@]4(OC(C)=O)CO[C@@H]4C[C@H](O)[C@@]3(C)[C@H]1O)C2(C)C` [Example 20, N-Debenzoyl-N-t-butoxycarbonyl-9-dihydrotaxol] were 0.0003 µg/mL (≈ 0.000352 µM) and 0.0025 µg/mL (≈ 0.00293 µM).
Take `CC(=O)O[C@@H]1C2=C(C)[C@@H](OC(=O)[C@H](O)[C@@H](NC(=O)OC(C)C)c3ccccc3)C[C@@](O)([C@@H](OC(=O)c3ccccc3)[C@@H]3[C@]4(OC(C)=O)CO[C@@H]4C[C@H](O)[C@@]3(C)[C@H]1O)C2(C)C` [Example 25, N-Debenzoyl-N-isopropoxycarbonyl-9-dihydrotaxol]: the concentration for half-maximal inhibition (IC50) in the test with A549 (setting [1]) turned out to be 0.0012 µg/mL (≈ 0.00143 µM); in the test on P-388 (setting [2]), 0.0092 µg/mL (≈ 0.011 µM).
For the compound `CCC1O[C@H]2C[C@H]3OC[C@@]3(OC(C)=O)[C@H]3[C@H](OC(=O)c4ccccc4)[C@]4(O)C[C@H](OC(=O)[C@H](O)[C@@H](NC(=O)c5ccccc5)c5ccccc5)C(C)=C([C@@H](OC(C)=O)[C@H](O1)[C@]23C)C4(C)C` (stereo partly shown) [Example 11, 9-Dihydrotaxol-7,9-propylidene acetal], the IC50 was found to be 0.023 µg/mL (≈ 0.0257 µM) in the test with A549 (A549, 72 h) and 0.022 µg/mL (≈ 0.0246 µM) in the test on P-388 (Mus musculus).
In the case of `CC(=O)O[C@@H]1C2=C(C)[C@@H](OC(=O)[C@H](O)[C@@H](NC(=O)c3ccccc3)c3ccccc3)C[C@@](O)([C@@H](OC(=O)c3ccccc3)[C@@H]3[C@]4(OC(C)=O)CO[C@@H]4C[C@H](OCC(O)CO)[C@@]3(C)[C@H]1O)C2(C)C` (stereo partly shown) [Example 16, 9-dihydrotaxol 7-O-(2,3-dihydroxypropyl) ether], the IC50 with A549 (setting [1]) was 0.626 µg/mL (≈ 0.673 µM); in the test with P-388 (setting [2]), > 1 µg/mL.
For the compound `C=CCO[C@H]1C[C@H]2OC[C@@]2(OC(C)=O)[C@H]2[C@H](OC(=O)c3ccccc3)[C@]3(O)C[C@H](OC(=O)[C@H](O)[C@@H](NC(=O)c4ccccc4)c4ccccc4)C(C)=C([C@@H](OC(C)=O)[C@H](O)[C@]12C)C3(C)C` [Example 15, 9-Dihydrotaxol-7-O-allyl ether], the IC50 in the test with A549 (A549, 72 h) worked out at 0.001 µg/mL (≈ 0.00112 µM); in the test on P-388 (Mus musculus), 0.0053 µg/mL (≈ 0.00592 µM).
